From patent publication US11685732B2, “MYST family histone acetyltransferase inhibitors” (Epizyme, Inc., priority 2017, dated 2023) come the findings set out here.

A word on the IC50: it is the concentration that inhibits the measured activity by half. The low end stands for inhibition by little substance, the high end for a need for much substance.

A value given as a limit tells only on which side of the number the result lay.

Assay [1] deals with KAT-5 (Homo sapiens (Human), UniProt Q92993). The assay is described as follows: KAT-5 biochemical inhibition assay (SAMDI mass spectrometry). The method in brief: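 Acetylation of 1 μM peptide by 9 nM enzyme with 0.5 μM acetyl-CoA (final) was run 90 min at 25° C in Tris pH 8.0 buffer with DTT, after compound preincubation at 2% DMSO. Formic acid stopped the reaction, and product was quantified by SAMDI mass spectrometry to derive IC50.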

Assay [2] addresses KAT-6A (Homo sapiens (Human), UniProt Q92794). The assay is described as follows: KAT-6A biochemical inhibition assay (SAMDI mass spectrometry). The gist of the method:
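IC50 values came from SAMDI time-of-flight mass spectrometry after formic acid quench (0.5% final). Acetylation ran 90 min at 25 °C with 1 μM acetyl coenzyme A and 1 μM peptide substrate, following compound pre-incubation with 12.5 nM KAT-6A in Tris buffer pH 8.0 containing DTT, 2% DMSO final.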

The target of assay [3] is KAT-7 (Homo sapiens (Human), UniProt O95251). The assay is described as follows: KAT-7 biochemical inhibition assay (SAMDI mass spectrometry). The gist of the method: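 Read-out was SAMDI time-of-flight MS of formic acid-quenched reactions (0.5% final). Compound dilutions (2% DMSO final) were pre-incubated with 6 nM KAT-7 in 50 mM Tris pH 8.0 with 1 mM DTT, then given 1 μM peptide substrate and 2 μM acetyl-CoA for 120 min at 25 °C. IC50 values were derived.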

The target in assay [4] is KAT-8 (Homo sapiens (Human), UniProt Q9H7Z6). The assay is described as follows: KAT-8 biochemical inhibition assay (SAMDI mass spectrometry). The procedure: KAT-8. Enzyme assay buffer was 50 mM Tris pH 8.0, 0.002% Tween20, 0.005% bovine skin gelatin, and 1 mM dithiothreitol (DTT). For determination of IC50 values, compounds were serially diluted with 2% (v/v) DMSO in the final reaction, pre-incubating each dilution of each compound with 40 μL of assay buffer containing KAT-8 enzyme (12.5 nM final concentration). 10 μL of assay buffer containing 1 μM peptide substrate and 5 μM acetyl coenzyme A (final concentrations) was added. Reactions (50 μL total) were then carried out at 25° C. for 90 minutes. Reactions were terminated by the addition of 0.5% formic acid (final concentration), and a sample of each reaction was analyzed by SAMDI Tech, Inc. (Chicago, Ill.) using self-assembled monolayer desorption/ionization time-of-flight mass spectrometry (Mrksich, M. (2008) Mass spectrometry of self-assembled monolayers: a new tool for molecular surface science. ACS Nano 2, 7-18).
Sequence of KAT-8 (Q9H7Z6 other isoform, or with tags, fused parts or gaps): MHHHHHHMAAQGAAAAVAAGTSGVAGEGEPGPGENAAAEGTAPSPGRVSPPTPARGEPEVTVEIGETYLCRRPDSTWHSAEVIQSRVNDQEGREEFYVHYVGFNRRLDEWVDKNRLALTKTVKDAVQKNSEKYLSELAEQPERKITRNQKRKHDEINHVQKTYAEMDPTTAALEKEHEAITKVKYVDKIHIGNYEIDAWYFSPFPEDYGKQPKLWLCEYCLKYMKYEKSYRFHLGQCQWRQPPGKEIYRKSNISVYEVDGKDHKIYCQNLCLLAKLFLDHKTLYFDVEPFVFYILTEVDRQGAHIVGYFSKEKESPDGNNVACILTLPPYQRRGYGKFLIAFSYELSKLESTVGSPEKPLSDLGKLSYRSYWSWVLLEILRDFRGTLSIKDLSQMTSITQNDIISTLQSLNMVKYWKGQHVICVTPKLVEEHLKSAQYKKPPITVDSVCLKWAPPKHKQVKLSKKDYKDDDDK

Sequence of KAT-6A (Q92794 other isoform, or with tags, fused parts or gaps): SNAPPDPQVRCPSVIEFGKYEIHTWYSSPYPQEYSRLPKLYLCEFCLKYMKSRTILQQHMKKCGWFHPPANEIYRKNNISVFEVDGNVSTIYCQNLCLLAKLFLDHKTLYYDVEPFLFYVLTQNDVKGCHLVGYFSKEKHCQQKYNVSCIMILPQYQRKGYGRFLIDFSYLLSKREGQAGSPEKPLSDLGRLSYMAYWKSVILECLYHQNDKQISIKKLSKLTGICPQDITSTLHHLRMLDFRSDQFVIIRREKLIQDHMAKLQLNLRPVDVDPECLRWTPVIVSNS
Sequence of KAT-7 (O95251 other isoform, or with tags, fused parts or gaps): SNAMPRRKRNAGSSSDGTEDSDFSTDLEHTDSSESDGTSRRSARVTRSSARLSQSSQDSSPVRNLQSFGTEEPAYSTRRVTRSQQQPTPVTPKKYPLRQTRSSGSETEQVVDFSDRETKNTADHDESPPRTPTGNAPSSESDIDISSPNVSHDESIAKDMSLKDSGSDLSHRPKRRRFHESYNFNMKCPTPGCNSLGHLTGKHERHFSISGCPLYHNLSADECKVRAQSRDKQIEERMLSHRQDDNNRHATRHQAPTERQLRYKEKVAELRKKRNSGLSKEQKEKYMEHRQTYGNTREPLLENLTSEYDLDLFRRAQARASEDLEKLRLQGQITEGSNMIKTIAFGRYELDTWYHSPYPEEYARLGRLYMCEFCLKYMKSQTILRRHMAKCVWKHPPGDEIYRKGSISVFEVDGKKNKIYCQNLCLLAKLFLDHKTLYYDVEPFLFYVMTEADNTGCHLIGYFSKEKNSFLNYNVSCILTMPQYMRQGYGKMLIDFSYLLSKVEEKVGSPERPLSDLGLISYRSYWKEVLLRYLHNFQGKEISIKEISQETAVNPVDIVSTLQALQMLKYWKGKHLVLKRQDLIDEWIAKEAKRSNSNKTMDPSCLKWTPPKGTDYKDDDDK
Sequence of KAT-5 (Q92993 other isoform, or with tags, fused parts or gaps): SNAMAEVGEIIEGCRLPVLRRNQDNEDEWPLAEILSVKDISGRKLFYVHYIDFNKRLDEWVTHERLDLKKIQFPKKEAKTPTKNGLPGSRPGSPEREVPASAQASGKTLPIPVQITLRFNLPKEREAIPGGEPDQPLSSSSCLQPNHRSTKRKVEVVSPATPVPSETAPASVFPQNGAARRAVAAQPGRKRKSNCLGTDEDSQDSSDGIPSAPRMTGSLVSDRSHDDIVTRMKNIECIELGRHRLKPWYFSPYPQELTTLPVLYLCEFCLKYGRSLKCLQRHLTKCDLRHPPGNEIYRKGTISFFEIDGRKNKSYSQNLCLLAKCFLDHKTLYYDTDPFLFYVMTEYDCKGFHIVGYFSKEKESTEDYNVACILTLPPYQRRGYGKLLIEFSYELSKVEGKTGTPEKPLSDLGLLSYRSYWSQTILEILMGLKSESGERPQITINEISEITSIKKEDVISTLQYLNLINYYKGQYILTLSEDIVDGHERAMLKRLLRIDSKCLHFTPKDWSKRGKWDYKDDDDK

Turning to `COCC(=O)N1CCCC(CS(=O)(=O)NNC(=O)c2cc(-c3cn(C)cn3)cc(Cl)c2F)C1` (stereo not drawn) [Compound I-35], the IC50 was below 10 µM in assay [1], below 10 µM in assay [2], below 10 µM in assay [3] and 10 to 50 µM in assay [4].

As to `Cc1cnn(-c2cc(Cl)c(F)c(C(=O)NNS(=O)(=O)CC3CCOCC3)c2)c1` [Compound I-36], the IC50 in assay [1] is 10 to 50 µM; in assay [2] it was below 10 µM; in assay [3], below 10 µM; in assay [4], above 100 µM.

As for `Cc1nc(-c2cc(Cl)c(F)c(C(=O)NNS(=O)(=O)C3CCOCC3)c2)cn1C` [Compound I-37], the IC50 in assay [1] is 50 to 100 µM; in assay [2] it was 10 to 50 µM; in assay [3], 10 to 50 µM; in assay [4] it was above 100 µM.

Regarding `CCn1cnc(C)c1-c1cc(Cl)c(F)c(C(=O)NNS(=O)(=O)CC2CCCCC2)c1` [Compound I-40], the IC50 in assay [1], in assay [2], in assay [3] and in assay [4] was above 100 µM each time.

With `O=C(NNS(=O)(=O)CC1CCOCC1)c1cc(-n2cccn2)cc(Cl)c1F` [Compound I-41], the IC50 is 10 to 50 µM in assay [1], below 10 µM in assay [2], 50 to 100 µM in assay [3] and above 100 µM in assay [4].

As for `Cn1cnc(-c2cc(Cl)c(F)c(C(=O)NNS(=O)(=O)C3COC3)c2)c1` [Compound I-42], the concentration for half-maximal inhibition (IC50) in assay [1] is above 100 µM; in assay [2], above 100 µM; in assay [3] it was below 10 µM; in assay [4], above 100 µM.

As for `Cc1ccn(-c2cc(Cl)c(F)c(C(=O)NNS(=O)(=O)CC3CCOCC3)c2)n1` [Compound I-43], the IC50 in assay [1] was 10 to 50 µM; in assay [2], below 10 µM; in assay [3] it was 50 to 100 µM; in assay [4] it was above 100 µM.

`O=C(NNS(=O)(=O)CC1CCCCC1)c1cc(-n2ccnc2)cc(Cl)c1F` [Compound I-44]: the half-maximal inhibitory concentration (IC50) was 50 to 100 µM in assay [1], above 100 µM in assay [2], above 100 µM in assay [3] and above 100 µM in assay [4].

Consider `Cc1ncn(C)c1-c1cc(Cl)c(F)c(C(=O)NNS(=O)(=O)CC2CCCCC2)c1` [Compound I-45], for which the IC50 in assay [1] was above 100 µM; in assay [2] it was above 100 µM; in assay [3] it was 50 to 100 µM; in assay [4] it was above 100 µM.

In the case of `CCn1cc(-c2cc(Cl)c(F)c(C(=O)NNS(=O)(=O)C3CCCCC3)c2)nc1C` [Compound I-46], the half-maximal inhibitory concentration (IC50) in assay [1] is 10 to 50 µM; in assay [2], 50 to 100 µM; in assay [3], below 10 µM; in assay [4], above 100 µM.

For `O=C(NNS(=O)(=O)CC1CCOCC1)c1cc(-n2ccnc2)cc(Cl)c1F` [Compound I-47], the IC50 in assay [1] was below 10 µM; in assay [2], 50 to 100 µM; in assay [3], above 100 µM; in assay [4], above 100 µM.

`O=C(NNS(=O)(=O)CC1CCOCC1)c1cc(-c2cscn2)cc(Cl)c1F` [Compound I-48]: the IC50 in assay [1] is below 10 µM; in assay [2] it was below 10 µM; in assay [3], below 10 µM; in assay [4], above 100 µM.

For `Cc1cn(-c2cc(Cl)c(F)c(C(=O)NNS(=O)(=O)CC3CCOCC3)c2)cn1` [Compound I-49], the IC50 in assay [1], in assay [2], in assay [3] and in assay [4] was above 100 µM each time.

For `Cc1cn(-c2cc(Cl)c(F)c(C(=O)NNS(=O)(=O)CC3CCOCC3)c2)nn1` [Compound I-50], the half-maximal inhibitory concentration (IC50) in assay [1] was below 10 µM; in assay [2], below 10 µM; in assay [3], 10 to 50 µM; in assay [4] it was above 100 µM.

As for `Cn1cnc(-c2cc(Cl)c(F)c(C(=O)NNS(=O)(=O)CC3CCCCC3)c2)c1` [Compound I-51, N′-(3-chloro-2-fluoro-5-(1-methyl-1H-imidazol-4-yl)benzoyl)-1-cyclohexyl methanesulfonohydrazide], the IC50 in assay [1] was below 10 µM; in assay [2], below 10 µM; in assay [3], below 10 µM; in assay [4], 10 to 50 µM.

With `CCn1cc(S(=O)(=O)NNC(=O)c2cc(-c3cn(C)cn3)cc(Cl)c2F)cn1` [Compound I-52], the half-maximal inhibitory concentration (IC50) is 10 to 50 µM in assay [1], 10 to 50 µM in assay [2], below 10 µM in assay [3] and above 100 µM in assay [4].

Take `Cn1cnc(-c2cc(Cl)c(F)c(C(=O)NNS(=O)(=O)CC3CCCN(S(C)(=O)=O)C3)c2)c1` (stereo not drawn) [Compound I-53]: the IC50 in assay [1] is below 10 µM; in assay [2] it was below 10 µM; in assay [3] it was below 10 µM; in assay [4] it was 50 to 100 µM.

For `Cc1ncc(-c2cc(Cl)c(F)c(C(=O)NNS(=O)(=O)C3CCOCC3)c2)n1C` [Compound I-54], the concentration for half-maximal inhibition (IC50) is 50 to 100 µM in assay [1], above 100 µM in assay [2], above 100 µM in assay [3] and above 100 µM in assay [4].

`Cn1cc(-c2cc(Cl)c(F)c(C(=O)NNS(=O)(=O)CC3CCCCC3)c2)nn1` [Compound I-55]: the IC50 in assay [1] is below 10 µM; in assay [2], below 10 µM; in assay [3], below 10 µM; in assay [4], 10 to 50 µM.

With `COCCC(=O)N1CCC(CS(=O)(=O)NNC(=O)c2cc(-c3cn(C)cn3)cc(Cl)c2F)C1` (stereo not drawn) [Compound I-56], the IC50 in assay [1] is 10 to 50 µM; in assay [2], 10 to 50 µM; in assay [3] it was below 10 µM; in assay [4] it was 10 to 50 µM.

Turning to `CC(=O)N1CCC(CS(=O)(=O)NNC(=O)c2cc(-c3cn(C)cn3)cc(Cl)c2F)C1` (stereo not drawn) [Compound I-57], the half-maximal inhibitory concentration (IC50) is 10 to 50 µM in assay [1], 10 to 50 µM in assay [2], below 10 µM in assay [3] and 10 to 50 µM in assay [4].

As to `Cc1nn(C)c(C)c1-c1cc(Cl)c(F)c(C(=O)NNS(=O)(=O)CC2CCOCC2)c1` [Compound I-58], the IC50 in assay [1], in assay [2], in assay [3] and in assay [4] was above 100 µM each time.

Regarding `Cc1ncc(-c2cc(Cl)c(F)c(C(=O)NNS(=O)(=O)C3CCCCC3)c2)n1C` [Compound I-59], the IC50 is 10 to 50 µM in assay [1], above 100 µM in assay [2], above 100 µM in assay [3] and above 100 µM in assay [4].

For `CCn1c(-c2cc(Cl)c(F)c(C(=O)NNS(=O)(=O)C3CCCCC3)c2)cnc1C` [Compound I-61], the half-inhibitory concentration (IC50) in assay [1] was above 100 µM; in assay [2] it was above 100 µM; in assay [3], 10 to 50 µM; in assay [4] it was above 100 µM.

In the case of `COCC(=O)N1CCC(CS(=O)(=O)NNC(=O)c2cc(-c3cn(C)cn3)cc(Cl)c2F)C1` (stereo not drawn) [Compound I-62], the half-maximal inhibitory concentration (IC50) was 10 to 50 µM in assay [1], 10 to 50 µM in assay [2], below 10 µM in assay [3] and 10 to 50 µM in assay [4].

Take `Cn1cnc(-c2cc(Cl)c(F)c(C(=O)NNS(=O)(=O)CC3CCN(S(C)(=O)=O)C3)c2)c1` (stereo not drawn) [Compound I-63]: the half-maximal inhibitory concentration (IC50) was below 10 µM in assay [1], below 10 µM in assay [2], below 10 µM in assay [3] and 10 to 50 µM in assay [4].

For `CCNC(=O)N1CCC(CS(=O)(=O)NNC(=O)c2cc(-c3cn(C)cn3)cc(Cl)c2F)C1` (stereo not drawn) [Compound I-64], the half-inhibitory concentration (IC50) in assay [1] is below 10 µM; in assay [2], below 10 µM; in assay [3], below 10 µM; in assay [4], 10 to 50 µM.

In the case of `Cn1cnc(-c2cc(Cl)c(F)c(C(=O)NNS(=O)(=O)c3cnn(C)c3)c2)c1` [Compound I-65], the half-maximal inhibitory concentration (IC50) in assay [1] is 50 to 100 µM; in assay [2] it was 10 to 50 µM; in assay [3] it was below 10 µM; in assay [4], above 100 µM.

In the case of `CN(C)C(=O)N1CCC(CS(=O)(=O)NNC(=O)c2cc(-c3cn(C)cn3)cc(Cl)c2F)C1` (stereo not drawn) [Compound I-66], the half-maximal inhibitory concentration (IC50) was below 10 µM in assay [1], below 10 µM in assay [2], below 10 µM in assay [3] and 10 to 50 µM in assay [4].

Consider `Cn1cc(-c2cc(Cl)c(F)c(C(=O)NNS(=O)(=O)CC3CCOCC3)c2)nn1` [Compound I-67], for which the half-maximal inhibitory concentration (IC50) in assay [1] is 10 to 50 µM; in assay [2], 10 to 50 µM; in assay [3], 10 to 50 µM; in assay [4] it was above 100 µM.

As to `O=C(NNS(=O)(=O)CC1CCOCC1)c1cc(-c2cocn2)cc(Cl)c1F` [Compound I-68], the half-maximal inhibitory concentration (IC50) in assay [1] was below 10 µM; in assay [2], 10 to 50 µM; in assay [3] it was 10 to 50 µM; in assay [4], 10 to 50 µM.

Regarding `Cn1cnc(-c2cc(Cl)c(F)c(C(=O)NNS(=O)(=O)c3cn(C)nn3)c2)c1` [Compound I-69], the IC50 in assay [1] is 10 to 50 µM; in assay [2] it was 10 to 50 µM; in assay [3] it was below 10 µM; in assay [4], 10 to 50 µM.

Regarding `Cc1nc(-c2cc(Cl)c(F)c(C(=O)NNS(=O)(=O)CC3CCOCC3)c2)cs1` [Compound I-70], the IC50 in assay [1], in assay [2], in assay [3] and in assay [4] was 10 to 50 µM in each case.
